Results on eleven molecules are retold here after ChEMBL document CHEMBL1155760, “Quinoline alkaloids and other constituents of Melicope semecarpifolia with antiplatelet aggregation activity” (2001).

One test in a line: Antiplatelet activity against washed rabbit platelet assessed as collagen-induced platelet aggregation at 20 ug/mL pre-incubated 3 mins before collagen challenge by turbidimetric method. As to conditions: Oryctolagus cuniculus.
Take `CCCCCCCC/C=C\CCCCCCCC(=O)OC` [METHYL OLEATE]: the Aggregation % at 20 µg/mL is 84.4%.

With `COc1ccc2ccc(=O)oc2c1CC=C(C)C` [OSTHOLE], the Aggregation % at 20 µg/mL worked out at 88.1%.

On to `COc1cc(O)c2c(=O)c(OC)c(-c3ccc(OC)c(O)c3)oc2c1` [AYANIN], for which the Aggregation % at 20 µg/mL came to 80.3%.

For the molecule `CC(C)=CCc1c(O)ccc2ccc(=O)oc12` [OSTHENOL], the Aggregation % at 20 µg/mL is 87%.

The next test in a line: Antiplatelet activity against washed rabbit platelet assessed as arachidonic acid-induced platelet aggregation at 10 ug/mL pre-incubated 3 mins before arachidonic acid challenge by turbidimetric method. As to conditions: Oryctolagus cuniculus.
With `COc1cc(O)c2c(=O)c(OC)c(-c3ccc(OC)c(O)c3)oc2c1` [AYANIN], the Aggregation % at 10 µg/mL was determined as 77.2%.

Another test in a line: Antiplatelet activity against washed rabbit platelet assessed as collagen-induced platelet aggregation at 50 ug/mL pre-incubated 3 mins before collagen challenge by turbidimetric method. As to conditions: Oryctolagus cuniculus.
Regarding `COc1ccc2ccc(=O)oc2c1CC=C(C)C` [OSTHOLE], the Aggregation % at 50 µg/mL amounted to 7%.

With `COc1cc2nc3occc3c(OC)c2cc1OC` [KOKUSAGININE], the Aggregation % at 50 µg/mL stood at 80.6%.

With `COc1cc(O)c2c(=O)c(OC)c(-c3ccc(OC)c(O)c3)oc2c1` [AYANIN], the Aggregation % at 50 µg/mL was 66.1%.

In the case of `CC(=O)Oc1ccccc1C(=O)O` [ASPIRIN], the Aggregation % at 50 µg/mL turned out to be 88.4%.

Take `CC(C)=CCc1c(O)ccc2ccc(=O)oc12` [OSTHENOL]: the Aggregation % at 50 µg/mL came to 79.2%.

A further test in a line: Antiplatelet activity against washed rabbit platelet assessed as arachidonic acid-induced platelet aggregation at 100 ug/mL pre-incubated 3 mins before arachidonic acid challenge by turbidimetric method. To be noted: Oryctolagus cuniculus.
As for `COc1cc(C(=O)O)cc(OC)c1O` [SYRINGIC ACID], the Aggregation % at 100 µg/mL turned out to be 83.2%.

On to `COc1ccc2ccc(=O)oc2c1CC=C(C)C` [OSTHOLE], for which the Aggregation % at 100 µg/mL came to 0%.

With `COc1ccc2c(OC)c3c(nc2c1OC)O[C@@H](C(C)(C)O)[C@H]3O`, the Aggregation % at 100 µg/mL came to 78.3%.

On to `COc1ccc2c(OC)c3c(nc2c1OC)O[C@H](C(C)(C)O)C3`, for which the Aggregation % at 100 µg/mL stood at 81.7%.

For the molecule `COc1cc2nc3occc3c(OC)c2cc1OC` [KOKUSAGININE], the Aggregation % at 100 µg/mL worked out at 0%.

In the case of `COCc1c(OC)c2ccc(OC)cc2[nH]c1=O` [SEMECARPIFOLINE], the Aggregation % at 100 µg/mL was determined as 81%.

`COc1c2ccc(O)cc2nc2occc12` [CONFUSAMELINE]: the Aggregation % at 100 µg/mL was determined as 0%.

Regarding `COc1cc(O)c2c(=O)c(OC)c(-c3ccc(OC)c(O)c3)oc2c1` [AYANIN], the Aggregation % at 100 µg/mL was 13.3%.

On to `CC(C)=CCc1c(O)ccc2ccc(=O)oc12` [OSTHENOL], for which the Aggregation % at 100 µg/mL amounted to 23.2%.

Another test can be described thus: Antiplatelet activity against washed rabbit platelet assessed as collagen-induced platelet aggregation at 100 ug/mL pre-incubated 3 mins before collagen challenge by turbidimetric method. As to conditions: Oryctolagus cuniculus.
With `COc1cc(C(=O)O)cc(OC)c1O` [SYRINGIC ACID], the Aggregation % at 100 µg/mL worked out at 85.1%.

Take `COc1ccc2ccc(=O)oc2c1CC=C(C)C` [OSTHOLE]: the Aggregation % at 100 µg/mL was 7.4%.

For the molecule `COc1ccc2c(OC)c3c(nc2c1OC)O[C@@H](C(C)(C)O)[C@H]3O`, the Aggregation % at 100 µg/mL was 79%.

Regarding `COc1ccc2c(OC)c3c(nc2c1OC)O[C@H](C(C)(C)O)C3`, the Aggregation % at 100 µg/mL was 84.4%.

For `COc1cc2nc3occc3c(OC)c2cc1OC` [KOKUSAGININE], the Aggregation % at 100 µg/mL was found to be 15.2%.

Take `COCc1c(OC)c2ccc(OC)cc2[nH]c1=O` [SEMECARPIFOLINE]: the Aggregation % at 100 µg/mL was 82.7%.

In the case of `COc1c2ccc(O)cc2nc2occc12` [CONFUSAMELINE], the Aggregation % at 100 µg/mL came to 11.4%.

In the case of `COc1cc(O)c2c(=O)c(OC)c(-c3ccc(OC)c(O)c3)oc2c1` [AYANIN], the Aggregation % at 100 µg/mL was 43.1%.

`CC(C)=CCc1c(O)ccc2ccc(=O)oc12` [OSTHENOL]: the Aggregation % at 100 µg/mL came out at 13.7%.

A short description of another test: Antiplatelet activity against washed rabbit platelet assessed as arachidonic acid-induced platelet aggregation at 5 ug/mL pre-incubated 3 mins before arachidonic acid challenge by turbidimetric method. To be noted: Oryctolagus cuniculus.
Take `COc1cc(O)c2c(=O)c(OC)c(-c3ccc(OC)c(O)c3)oc2c1` [AYANIN]: the Aggregation % at 5 µg/mL is 81.9%.

A short description of the next test: Antiplatelet activity against washed rabbit platelet assessed as thrombin-induced platelet aggregation at 100 ug/mL pre-incubated 3 mins before thrombin challenge by turbidimetric method. To be noted: Oryctolagus cuniculus.
For the molecule `COc1cc(C(=O)O)cc(OC)c1O` [SYRINGIC ACID], the Aggregation % at 100 µg/mL was 88.3%.

On to `COc1ccc2ccc(=O)oc2c1CC=C(C)C` [OSTHOLE], for which the Aggregation % at 100 µg/mL came to 86.6%.

Consider `COc1ccc2c(OC)c3c(nc2c1OC)O[C@@H](C(C)(C)O)[C@H]3O`, for which the Aggregation % at 100 µg/mL stood at 85.4%.

On to `COc1ccc2c(OC)c3c(nc2c1OC)O[C@H](C(C)(C)O)C3`, for which the Aggregation % at 100 µg/mL worked out at 86.5%.

Take `COCc1c(OC)c2ccc(OC)cc2[nH]c1=O` [SEMECARPIFOLINE]: the Aggregation % at 100 µg/mL worked out at 85.8%.

Take `COc1cc(O)c2c(=O)c(OC)c(-c3ccc(OC)c(O)c3)oc2c1` [AYANIN]: the Aggregation % at 100 µg/mL was 85.4%.

Regarding `CC(C)=CCc1c(O)ccc2ccc(=O)oc12` [OSTHENOL], the Aggregation % at 100 µg/mL amounted to 90.4%.

The next test is described as follows: Antiplatelet activity against washed rabbit platelet assessed as platelet activating factor-induced platelet aggregation at 100 ug/mL pre-incubated 3 mins before PAF challenge by turbidimetric method. As to conditions: Oryctolagus cuniculus.
Turning to `COc1cc(C(=O)O)cc(OC)c1O` [SYRINGIC ACID], the Aggregation % at 100 µg/mL is 89.6%.

For `COc1ccc2ccc(=O)oc2c1CC=C(C)C` [OSTHOLE], the Aggregation % at 100 µg/mL turned out to be 0%.

With `COc1ccc2c(OC)c3c(nc2c1OC)O[C@@H](C(C)(C)O)[C@H]3O`, the Aggregation % at 100 µg/mL was found to be 89.4%.

As to `COc1ccc2c(OC)c3c(nc2c1OC)O[C@H](C(C)(C)O)C3`, the Aggregation % at 100 µg/mL was 89.8%.

For the molecule `COc1cc2nc3occc3c(OC)c2cc1OC` [KOKUSAGININE], the Aggregation % at 100 µg/mL turned out to be 70.7%.

With `COCc1c(OC)c2ccc(OC)cc2[nH]c1=O` [SEMECARPIFOLINE], the Aggregation % at 100 µg/mL came to 88.8%.

Consider `COc1c2ccc(O)cc2nc2occc12` [CONFUSAMELINE], for which the Aggregation % at 100 µg/mL amounted to 78.6%.

For `COc1cc(O)c2c(=O)c(OC)c(-c3ccc(OC)c(O)c3)oc2c1` [AYANIN], the Aggregation % at 100 µg/mL came to 88.3%.

For the molecule `CC(C)=CCc1c(O)ccc2ccc(=O)oc12` [OSTHENOL], the Aggregation % at 100 µg/mL came to 89.8%.

The next test can be described thus: Antiplatelet activity against washed rabbit platelet assessed as platelet activating factor-induced platelet aggregation at 50 ug/mL preincubated 3 mins before PAF challenge by turbidimetric method. To be noted: Oryctolagus cuniculus.
As to `COc1ccc2ccc(=O)oc2c1CC=C(C)C` [OSTHOLE], the Aggregation % at 50 µg/mL came to 88.6%.

On to `COc1cc2nc3occc3c(OC)c2cc1OC` [KOKUSAGININE], for which the Aggregation % at 50 µg/mL stood at 88.9%.

As for `CC(=O)Oc1ccccc1C(=O)O` [ASPIRIN], the Aggregation % at 50 µg/mL stood at 91.2%.

A further test in a line: Antiplatelet activity against washed rabbit platelet assessed as thrombin-induced platelet aggregation at 50 ug/mL preincubated 3 mins before thrombin challenge by turbidimetric method. To be noted: Oryctolagus cuniculus.
As to `CC(=O)Oc1ccccc1C(=O)O` [ASPIRIN], the aggregation at 50 µg/mL amounted to 94.2%.

The next test in a line: Antiplatelet activity against washed rabbit platelet assessed as arachidonic acid-induced platelet aggregation at 20 ug/mL pre-incubated 3 mins before arachidonic acid challenge by turbidimetric method. As to conditions: Oryctolagus cuniculus.
Turning to `CCCCCCCC/C=C\CCCCCCCC(=O)OC` [METHYL OLEATE], the Aggregation % at 20 µg/mL worked out at 81.7%.

`COc1ccc2ccc(=O)oc2c1CC=C(C)C` [OSTHOLE]: the Aggregation % at 20 µg/mL turned out to be 84.5%.

Turning to `COc1cc(O)c2c(=O)c(OC)c(-c3ccc(OC)c(O)c3)oc2c1` [AYANIN], the Aggregation % at 20 µg/mL came to 66.3%.

Turning to `CC(=O)Oc1ccccc1C(=O)O` [ASPIRIN], the Aggregation % at 20 µg/mL amounted to 11.7%.

The nature of the next test: Antiplatelet activity against washed rabbit platelet assessed as thrombin-induced platelet aggregation at 20 ug/mL pre-incubated 3 mins before thrombin challenge by turbidimetric method. As to conditions: Oryctolagus cuniculus.
Regarding `CCCCCCCC/C=C\CCCCCCCC(=O)OC` [METHYL OLEATE], the Aggregation % at 20 µg/mL is 86.7%.

The nature of a further test: Antiplatelet activity against washed rabbit platelet assessed as arachidonic acid-induced platelet aggregation at 50 ug/mL preincubated 3 mins before arachidonic acid challenge by turbidimetric method. To be noted: Oryctolagus cuniculus.
In the case of `COc1ccc2ccc(=O)oc2c1CC=C(C)C` [OSTHOLE], the Aggregation % at 50 µg/mL was 52.6%.

For `COc1cc2nc3occc3c(OC)c2cc1OC` [KOKUSAGININE], the Aggregation % at 50 µg/mL is 0%.

In the case of `COc1cc(O)c2c(=O)c(OC)c(-c3ccc(OC)c(O)c3)oc2c1` [AYANIN], the Aggregation % at 50 µg/mL is 38%.

Take `CC(=O)Oc1ccccc1C(=O)O` [ASPIRIN]: the Aggregation % at 50 µg/mL is 7.8%.

`CC(C)=CCc1c(O)ccc2ccc(=O)oc12` [OSTHENOL]: the Aggregation % at 50 µg/mL was found to be 84.8%.

Another test in a line: Antiplatelet activity against washed rabbit platelet assessed as platelet activating factor-induced platelet aggregation at 20 ug/mL pre-incubated 3 mins before PAF challenge by turbidimetric method. To be noted: Oryctolagus cuniculus.
Turning to `CCCCCCCC/C=C\CCCCCCCC(=O)OC` [METHYL OLEATE], the Aggregation % at 20 µg/mL worked out at 89.4%.

As to `COc1ccc2ccc(=O)oc2c1CC=C(C)C` [OSTHOLE], the Aggregation % at 20 µg/mL turned out to be 90%.
